Data from article PMC7217877, “N-AS-triggered SPMs are direct regulators of microglia in a model of Alzheimer’s disease” (Nature Communications, 2020).
Several values for one entry are separate records, joined by “and”; a condition that tells them apart may be missing. Identical values can stand only once.

Columns and labels:
COX2 = biological target: T1, COX2 (Homo sapiens, UniProt P35354); assay: lipid mediator and SPM biosynthesis by recombinant COX2 with 5-LOX (LC-MS/MS); assay type: biochemical; parameters: purchased Cayman 60122; details: for 11-HETE, Product (%) / 15-HETE, Product (%) / 15R-LXA4, Product (%) / PGH2, Product (%): AA; for 11-HETE, Product (%) / 15-HETE, Product (%) / 15R-LXA4, Product (%) / PGH2, Product (%) / 13-HDHA, Product (%) / 17-HDHA, Product (%) / RvD1, Product (%) / 11-HEPE, Product (%) / 15-HEPE, Product (%) / 18-HEPE, Product (%) / RvE1, Product (%): acetylated huCOX2, mean±s.e.m., n=6; for 15R-LxA4 quantification (Fig 2c) / RvD1 quantification (Fig 2c) / RvE1 quantification (Fig 2c): Control COX2 + 5-LOX, replicates; for 13-HDHA, Product (%) / 17-HDHA, Product (%) / RvD1, Product (%): DHA; for 11-HEPE, Product (%) / 15-HEPE, Product (%) / 18-HEPE, Product (%) / RvE1, Product (%): EPA
T1 sequence (P35354 18-604): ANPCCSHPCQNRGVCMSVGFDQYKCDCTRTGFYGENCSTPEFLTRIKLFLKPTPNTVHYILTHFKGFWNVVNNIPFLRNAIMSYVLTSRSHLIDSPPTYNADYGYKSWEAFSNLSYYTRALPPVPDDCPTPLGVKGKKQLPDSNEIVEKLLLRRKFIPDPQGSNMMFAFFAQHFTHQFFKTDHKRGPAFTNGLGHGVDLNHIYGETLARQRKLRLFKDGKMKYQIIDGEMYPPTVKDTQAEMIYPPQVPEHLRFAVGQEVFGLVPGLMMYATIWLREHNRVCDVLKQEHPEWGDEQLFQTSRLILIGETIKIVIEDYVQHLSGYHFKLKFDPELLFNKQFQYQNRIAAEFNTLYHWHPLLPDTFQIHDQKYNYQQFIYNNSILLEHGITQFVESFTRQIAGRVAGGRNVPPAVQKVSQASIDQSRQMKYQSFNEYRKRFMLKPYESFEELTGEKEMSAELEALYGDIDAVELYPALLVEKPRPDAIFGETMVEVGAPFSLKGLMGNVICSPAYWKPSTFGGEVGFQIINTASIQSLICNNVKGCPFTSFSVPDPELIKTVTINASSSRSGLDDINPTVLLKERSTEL
Procedure: Lipid mediators metabololipidomics were performed according to previously described procedures with minor modifications[4],[30]. To confirm the biosynthesis of lipid mediators by recombinant COX2 treated with N-AS or aspirin, 10 U of human recombinant COX2 (Cayman, 60122) was incubated in the presence of 500 μM aspirin (Sigma-Aldrich, A5376) or N-AS (Sigma-Aldrich, 01912) at 37 °C for 30 min. The enzyme was filtered with a Microcon column (Millipore) to remove unreacted aspirin or N-AS and was then resuspended in 0.1 M Tris-HCl (pH 8.0). Next, 500 μM phenol (Sigma-Aldrich) and 1 μM hematin-porcine (Sigma-Aldrich) were added immediately before incubation with 100 μM AA, EPA or DHA (Cayman) at 37 °C for 2 h, respectively. The mixtures were incubated with 30 U of human 5-LOX (Cayman, 60402) containing 2 mM CaCl2 (Sigma-Aldrich), 1 mM ATP (Amresco) and 5 μM 13-HpODE (Cayman) as activators. Also, to validate the importance of residue S565 for N-AS-acetylation of COX2 and production of SPMs, 10 U of the COX2 S565A mutant was used in the above-described method. In addition, to confirm SPM generation in neurons and microglia, these cells were treated with Aβ and sonicated in neuronal and glial culture medium. […] To evaluate the relationship of N-AS and SPM production in microglia, microglia were isolated from WT, APP/PS1, and APP/PS1 treated with N-AS mice at 9 months of age. The microglia were sonicated and resuspended in microglial culture medium. The supernatants were incubated with 100 μM AA, EPA, and DHA (Cayman) at 37 °C for 2 h. A 50 μl aliquot of the mixture from each cell lysate was added to a 250 μl aliquot of 1 ng ml^−1 of 15S-LXA4-d5 (internal standard, Cayman) methanol solution. After vortexing for 10 min and centrifuging at 15,974×g for 5 min, the supernatant was subjected to the analysis of the lipid mediators using an Agilent 6470 Triple Quad LC-MS/MS system (Agilent) coupled to an Agilent 1290 HPLC system. Chromatographic separation was achieved using a Synergi Polar RP (4 μm, 2.0 mm i.d. × 150 mm, Phenomenex). Analytes were eluted with a mobile phase consisting of water: formic acid (100:0.1 v/v) (phase A) and methanol: formic acid (100:0.1 v/v) (phase B) in gradient elution mode for 23 min a flow rate of 0.2 ml min^−1. The elution gradient was as follows: from 0 to 0.1 min the content of phase A was 37% and the content of phase A was decreased to 10% and maintained for 5.5 min. The content of phase A was increased back to 37% at 6.0 min and maintained for 23 min. Quantification was carried out using MRM in negative ionization mode and collision energy of 10–15 eV. The mass transition from Q1 to Q3 is shown in Supplementary Table 2. In this study, the peak areas for all components were automatically integrated using MassHunter B 06.00.

[1] = solubility (stated in discussion); assay type: physicochemical

solubility, in words [1]	SMILES	11-HETE, Product (%) (COX2)	15-HETE, Product (%) (COX2)	15R-LXA4, Product (%) (COX2)	PGH2, Product (%) (COX2)	15R-LxA4 quantification (Fig 2c) (COX2)	RvD1 quantification (Fig 2c) (COX2)	RvE1 quantification (Fig 2c) (COX2)	13-HDHA, Product (%) (COX2)	17-HDHA, Product (%) (COX2)	RvD1, Product (%) (COX2)	11-HEPE, Product (%) (COX2)	15-HEPE, Product (%) (COX2)	18-HEPE, Product (%) (COX2)	RvE1, Product (%) (COX2)
–	CC(=O)Oc1ccccc1C(=O)O [Aspirin, acetylsalicylic acid, reference compound]	13.8±0.41	9.5±0.22	4.2±0.18	72.3±0.68	8734.32 and 9047.96 and 8672.38 and 8679.89 and 12017 and 8786.05 and 9112.59	529.99 and 519.44 and 632.8 and 532.11 and 521.52	3237.03 and 3196.43 and 4589.07 and 4937.89 and 3246.64 and 3210.17	5.0±0.15	94.6±0.22	0.4±0.01	27.3±1.40	5.8±0.06	61.3±0.32	3.1±0.25
poor solubility	CCCCCCCCCCCCC/C=C/[C@@H](O)[C@H](CO)NC(C)=O [N-AS, N-((2S,3R,E)-1,3-Dihydroxyoctadec-4-en-2-yl)acetamide]	13.1±0.55	13.3±0.59	4.8±0.23	69.7±1.08	10460.6 and 9709.13 and 8768.93 and 9235.99 and 8577.96 and 10535.3	670.43 and 829.94 and 668.56 and 744.28 and 781.34 and 739.49 and 733.66	4023.99 and 3322.2 and 4006.77 and 4517.41 and 3768.91 and 4998.35 and 3336.48	3.6±0.09	95.8±0.19	0.53±0.09	26.8±0.41	5.8±0.09	64.0±0.25	3.3±0.09
